{"source": "paper PMC11678531", "about": "“C118P Suppresses Gastric Cancer Growth via Promoting Autophagy–Lysosomal Degradation of RAB1A” (Pharmaceutics, 2024)", "biological_target": "T1, RAB1A (Human Rab1a Recombinant protein) (Homo sapiens, UniProt P62820)", "T1 construct": "commercial recombinant protein (Shanghai Chunmai Biotechnology); RED-NHS labelled", "T1 sequence (P62820 2-205)": "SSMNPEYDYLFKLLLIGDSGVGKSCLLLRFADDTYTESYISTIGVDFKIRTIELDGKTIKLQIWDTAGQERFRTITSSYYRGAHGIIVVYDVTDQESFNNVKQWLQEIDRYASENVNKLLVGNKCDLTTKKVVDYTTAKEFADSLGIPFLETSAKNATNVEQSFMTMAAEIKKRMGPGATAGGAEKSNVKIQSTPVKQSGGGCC", "assay": "microscale thermophoresis", "assay_type": "binding", "conditions": "RED-NHS labelled protein; room temperature; C118P 0.61 pM to 20 µM"}
{"smiles": "COc1cc(OC)cc(-c2nc[nH]c2-c2ccc(OC)c(OP(=O)(O)O)c2)c1", "note": "[C118P]", "values": [{"measurement": "Kd", "value": 3.13, "unit": "nM"}]}
